Data reported in patent US20200030455A1, “MULTISTEP TUMOR TARGETING BY TAGGED ANTIBODY DERIVATIVES AND TAGGED DRUGS” (ISTITUTO BIOCHIMICO ITALIANO GIOVANNI LORENZINI S.P.A, priority 2017, published 2020).

Legend:
[1] = tested on: ERBB2 pathway (c-Fos promoter reporter) in BRC 230 breast carcinoma cells; assay: c-Fos promoter reporter (luminescence, RLU) assay of ERBB2 signaling; assay type: cell-based
Text: Mertansine was StrepTagged using a linker-spacer (depicted in A). The Strep-tag peptide WSHPQFEK (SEQ ID NO 2) was linked to the mertansine thiol group using the protocol disclosed in Bioconjugate Techniques, 3rd Edition Bioconjugate Techniques, 3rd Edition (2013) by Greg T. Hermanson. BRC 230 breast carcinoma cells, expressing moderate levels of ERBB2 were stably transfected with a promoter-reporter gene construct in which luciferase is placed under the control of the c-Fos promoter. […] Therefore, c-Fos activation is proportional to ERBB2 signaling, and luminescence is expected to decrease in response to the Toolbox treatment. BRC transfectants were seeded in 96-well plates (quadruplicates), and cultured for 24 h either in the presence or in the absence of the ERB-specific growth factor Neuregulin 1 (NRG-1) at a concentration of 5 nM, as indicated. During the last 30 min of this incubation ScFv (10 μg/ml) was added, where indicated. Meanwhile, equal molar concentrations of StrepTagged Mertansine (or RPMI 1640 medium, as a control) were pre-incubated with StrepTactMult in complete culture medium (RPMI 1640 containing 10% bovine serum) to form drug: StrepTactin complexes. […] All the cells were cultured for additional 72 h, and Relative Luminescence Units (RLU) were assessed in a luminometer.

[2] = tested on: SK-BR-3 breast carcinoma cells; assay: 3H-Thymidine incorporation (cell proliferation) assay; assay type: cell-based, human; settings: drug alone, without Toolbox cocktail; 5 and 50 μM; 72 h
Experimental: NAX 098 was modified by covalent addition of the polypeptide StrepTag ([…]), as also shown in (A). SK-BR-3 breast carcinoma cells were seeded in 96-well plates (quadruplicates), and cultured for 30 min in the presence of ScFv (10 μg/ml). Meanwhile, equal molar concentrations of NAX 098 and NAX […] (or RPMI 1640 medium, as a control) were pre-incubated with StrepTactMult in complete culture medium (RPMI 1640 containing 10% bovine serum) to form drug: StrepTactin complexes. The drug: StrepTactin complexes were added to separate cultures to yield a final StrpTactMult concentration of 0.75 μg/well (approximately 3.2 μg/ml), and two final drug concentrations of 5 and 50 μM, as indicated in (B). As a control, equal amounts of NAX 098 and NAX […] drugs were added to separate wells in the absence of the Toolbox cocktail. All the cells were cultured for 72 h, and ^3H-Thymidine incorporation was assessed over a 4 h radioactive pulse. Results were expressed as percent of radioactive Thymidine incorporation as compared to untreated (RPMI 1640 vehicle alone) control cells.

| Compound | activity of the ERBB2 pathway (Relative Luminescence Units) ([1]; BRC 230 transfectants, with or without NRG-1 5 nM, ScFv 10 μg/ml, drug 5 nM, 72 h) | activity of the StrepTagged drug before system-mediated dispatch ([1]; figure legend of Drawing 4) | inhibition of cell proliferation (3H-Thymidine incorporation vs untreated control) [2] |
| --- | --- | --- | --- |
| StrepTagged Mertansine: Strep-tag peptide WSHPQFEK linked to the mertansine thiol group using a linker-spacer | inhibited the ERBB2 pathway | inactivates the drug | – |
| COc1ccc2c(CCc3ccc(Cl)cc3)c3[n+](cc2c1OCCCN1C(=O)C=CC1=O)CCc1cc2c(cc1-3)OCO2 [NAX 098, 9-(3-propylmaleimide)-13-[2-(4-chlorophenyl)ethyl]berberine] | – | – | strongly inhibited cell proliferation |
